Data on 19 compounds can be found in patent publication US20260265235A1, “BICYCLOAMINE CARBOXAMIDE DERIVATIVE” (Sumitomo Pharma Co., Ltd., priority 2022, published 2026).

For assay [1], the target named is T1, Human orexin receptor type 2 (Homo sapiens, UniProt O43614).
T1 construct: expressed in transfected cells; host or cells: CHO cells (transient expression, with apoaequorin)
T1 sequence (O43614 1-444): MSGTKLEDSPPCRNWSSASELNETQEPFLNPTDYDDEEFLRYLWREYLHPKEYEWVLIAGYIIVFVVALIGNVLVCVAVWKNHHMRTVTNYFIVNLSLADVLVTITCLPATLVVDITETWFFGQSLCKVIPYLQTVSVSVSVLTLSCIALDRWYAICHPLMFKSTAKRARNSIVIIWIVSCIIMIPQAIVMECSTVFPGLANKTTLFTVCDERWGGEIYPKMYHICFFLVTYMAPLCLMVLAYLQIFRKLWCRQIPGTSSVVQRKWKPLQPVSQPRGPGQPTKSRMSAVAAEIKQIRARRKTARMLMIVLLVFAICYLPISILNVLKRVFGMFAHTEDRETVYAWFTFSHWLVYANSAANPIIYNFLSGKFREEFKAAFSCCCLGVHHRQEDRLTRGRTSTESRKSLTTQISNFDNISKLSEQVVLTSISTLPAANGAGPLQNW
Put plainly: Test Example 1: agonist activity for orexin receptor type 2 (aequorin luminescence, intracellular calcium mobilization in CHO cells). The format is cell-based. The note with it: compound 10 μM; relative percentage of luminescence for the luminescence (100%) of Orexin A (100 μM); CHO cells transiently expressing human orexin receptor type 2 and apoaequorin. The method, then:
Test Example 1: Measurement of Agonist Activity for Orexin Receptor Type 2
(§1) Human orexin receptor type 2 and apoaequorin were transiently expressed in CHO cells, and the agonist activity was evaluated based on intracellular calcium mobilization with ligand stimulation. The CHO cells transiently-expressed human orexin receptor type 2 and apoaequorin were seeded on a 384-well plate by 2,000 cells/well, and then incubated for 16-22 hours. After the plate was returned to room temperature, Coelenterazine hcp (final concentration: 1 μM) was added to the plate, and the plate was allowed to stand at room temperature for 2 hours. And then, Orexin A or each test compound was added to the plate, and the luminescence of the cells was measured with FDSS7000 (Hamamatsu Photonics K.K.), wherein Orexin A and each test compound were dissolved in DMSO (final concentration: 0.1%), and diluted with a buffer (Hanks, 20 mM HEPES, 0.1% BSA). The agonist activity of each test compound for orexin receptor type 2 was calculated as relative percentage of luminescence for the luminescence (100%) of Orexin A (100 μM).
(§2) Each agonist activity of the compounds obtained in Examples (10 μM) for orexin receptor type 2 is shown in the table below as relative percentage of luminescence for the luminescence (100%) of Orexin A (100 μM).
A general note: A change in cytosolic calcium serves as a functional read-out for many receptors and channels.

Assay [2] deals with T1, Human orexin receptor type 2. In words: Test Example 2: agonist activity for orexin receptor type 2 (aequorin luminescence, intracellular calcium mobilization in CHO cells). The note with it: compound 10 μM; relative percentage of luminescence for the luminescence (100%) of Orexin A (100 μM); CHO cells transiently expressing human orexin receptor type 2 and apoaequorin. The format is cell-based. The method, then:
Test Example 2: Measurement of Agonist Activity for Orexin Receptor Type 2
as §1, with “Orexin A (PEPTIDE INSTITUTE, INC., Lot. 711101) or each” for “Orexin A or each”
as §2

For the compound `CC(C)N1CCN([C@H]2CCCC(F)(F)[C@@H]2NC(=O)N2C[C@H]3C[C@H](c4noc([C@@H]5C[C@@H]5F)n4)C[C@H]3C2)CC1` [Example 2, (3aR,5S,6aS)—N-{(1R,6S)-2,2-difluoro-6-[4-(propan-2-yl)piperazin-1-yl]cyclohexyl}-5-{5-[(1S,2S)-2-fluorocyclopropyl]-1,2,4-oxadiazol-3-yl}hexahydropenta[c]pyrrole-2(1H)-carboxamide], the “Agonist Activity (%)” value in assay [1] was 275%. Turning to `CC(C)N1CC[C@H](O[C@H]2CCCC(F)(F)[C@@H]2NC(=O)N2C[C@@H]3CN(c4ccccc4)C[C@@H]3C2)C1` [Example 29, (3aR,6aS)—N-[(1R,6S)-2,2-difluoro-6-{[(3S)-1-(propan-2-yl)pyrrolidin-3-yl]oxy}cyclohexyl]-5-phenylhexahydropyrrolo[3,4-c]pyrrole-2(1H)-carboxamide], the “Agonist Activity (%)” value in assay [2] is on record as 393%. The same measure, in the same setting: next, `CC(C)N1CCN([C@H]2CCCC(F)(F)[C@@H]2NC(=O)N2C[C@H]3C[C@@H](c4ccccn4)C[C@H]3C2)CC1` [Example 25, (3aR,5R,6aS)—N-{(1R,6S)-2,2-difluoro-6-[4-(propan-2-yl)piperazin-1-yl]cyclohexyl}-5-(pyridin-2-yl)hexahydropenta[c]pyrrole-2(1H)-carboxamide]: 396%.

For the compound `CC(C)N1CCN([C@H]2CCCC(F)(F)[C@@H]2NC(=O)N2C[C@H]3C[C@@H](c4cccc(F)c4)C[C@H]3C2)CC1` [Example 16, (3aR,5R,6aS)—N-{(1R,6S)-2,2-difluoro-6-[4-(propan-2-yl)piperazin-1-yl]cyclohexyl}-5-(3-fluorophenyl)hexahydropenta[c]pyrrole-2(1H)-carboxamide], the “Agonist Activity (%)” value in assay [1] was 491%. Same read-out and setting: next, `CC(C)N1CCN([C@H]2CCCC(F)(F)[C@@H]2NC(=O)N2C[C@H]3C[C@@H](c4ccccc4F)C[C@H]3C2)CC1` [Example 17, (3aR,5R,6aS)—N-{(1R,6S)-2,2-difluoro-6-[4-(propan-2-yl)piperazin-1-yl]cyclohexyl}-5-(2-fluorophenyl)hexahydropenta[c]pyrrole-2(1H)-carboxamide]: 315%; `CC(C)N1CCN([C@H]2CCCC(F)(F)[C@@H]2NC(=O)N2C[C@H]3C[C@H](c4noc(C5CC5)n4)C[C@H]3C2)CC1` [Example 1, (3aR,5S,6aS)-5-(5-Cyclopropyl-1,2,4-oxadiazol-3-yl)-N-{(1R,6S)-2,2-difluoro-6-[4-(propan-2-yl)piperazin-1-yl]cyclohexyl}hexahydropenta[c]pyrrole-2(1H)-carboxamide]: 375%. Turning to `CC(C)N1CCN([C@H]2CCCC(F)(F)[C@@H]2NC(=O)N2C[C@@H]3C[C@](C)(c4noc(C5CC5)n4)C[C@@H]3C2)CC1` [Example 6, (3aR,5R,6aS)-5-(5-cyclopropyl-1,2,4-oxadiazol-3-yl)-N-{(1R,6S)-2,2-difluoro-6-[4-(propan-2-yl)piperazin-1-yl]cyclohexyl}-5-methylhexahydropenta[c]pyrrole-2(1H)-carboxamide], the “Agonist Activity (%)” value in assay [1] was 282%. The same measure, in the same setting: to `CC(C)N1CCN([C@H]2CCCC(F)(F)[C@@H]2NC(=O)N2C[C@H]3C[C@@H](c4noc(C5CC5)n4)C[C@H]3C2)CC1` [Example 8, (3aR,5R,6aS)-5-(5-cyclopropyl-1,2,4-oxadiazol-3-yl)-N-{(1R,6S)-2,2-difluoro-6-[4-(propan-2-yl)piperazin-1-yl]cyclohexyl}hexahydropenta[c]pyrrole-2(1H)-carboxamide] belongs 423%; to `CC(C)N1CCN([C@H]2CCCC(F)(F)[C@@H]2NC(=O)N2C[C@H]3C[C@@H](c4ccccc4)C[C@H]3C2)CC1` [Example 9, (3aR,5R,6aS)—N-{(1R,6S)-2,2-difluoro-6-[4-(propan-2-yl)piperazin-1-yl]cyclohexyl}-5-phenylhexahydropenta[c]pyrrole-2(1H)-carboxamide], 424%. Still for that read-out and setting: to `CC(C)N1CCN([C@H]2CCCC(F)(F)[C@@H]2NC(=O)N2CC[C@H]3C[C@H](c4noc(C5CC5)n4)[C@H]3C2)CC1` [Example 5] belongs 79%. For the compound `Cc1ccccc1[C@@H]1C[C@@H]2CN(C(=O)N[C@@H]3[C@@H](N4CCN(C(C)C)CC4)CCCC3(F)F)C[C@@H]2C1` [Example 14, (3aR,5R,6aS)—N-{(1R,6S)-2,2-difluoro-6-[4-(propan-2-yl)piperazin-1-yl]cyclohexyl}-5-(2-methylphenyl)hexahydropenta[c]pyrrole-2(1H)-carboxamide], the “Agonist Activity (%)” value in assay [1] is recorded as 446%. Same read-out and setting: to `CC(C)N1CCN([C@H]2CCCC(F)(F)[C@@H]2NC(=O)N2C[C@H]3CC(c4ccccc4)C[C@H]3C2)CC1` (stereo partly drawn) [Example 12, (3aR,5S,6aS)—N-{(1R,6S)-2,2-difluoro-6-[4-(propan-2-yl)piperazin-1-yl]cyclohexyl}-5-phenylhexahydropenta[c]pyrrole-2(1H)-carboxamide] belongs 492%.

Take `CC(C)N1CCN([C@H]2CCCC(F)(F)[C@@H]2NC(=O)N2C[C@H]3CC(c4ccccc4)=C[C@H]3C2)CC1` [Example 10]: the “Agonist Activity (%)” value in assay [1] amounted to 450%. Same read-out and setting: to `CC(C)N1CCN([C@H]2CCCC(F)(F)[C@@H]2NC(=O)N2C[C@@H]3[C@H](C2)[C@H]3c2noc(C3CC3)n2)CC1` [Example 3, (1R,5S,6R)-6-(5-cyclopropyl-1,2,4-oxadiazol-3-yl)-N-{(1R,6S)-2,2-difluoro-6-[4-(propan-2-yl)piperazin-1-yl]cyclohexyl}-3-azabicyclo[3.1.0]hexane-3-carboxamide] belongs 217%.

Turning to `Cc1ccc([C@@H]2C[C@@H]3CN(C(=O)N[C@@H]4[C@@H](N5CCN(C(C)C)CC5)CCCC4(F)F)C[C@@H]3C2)cc1` [Example 13, (3aR,5R,6aS)—N-{(1R,6S)-2,2-difluoro-6-[4-(propan-2-yl)piperazin-1-yl]cyclohexyl}-5-(4-methylphenyl)hexahydropenta[c]pyrrole-2(1H)-carboxamide], in assay [1], the “Agonist Activity (%)” value is reported as 466%.

Turning to `CC(C)N1CCN([C@H]2CCCC(F)(F)[C@@H]2NC(=O)N2C[C@@H]3C[C@](C)(c4noc([C@@H]5C[C@@H]5F)n4)C[C@@H]3C2)CC1` [Example 7, (3aR,5R,6aS)—N-{(1R,6S)-2,2-difluoro-6-[4-(propan-2-yl)piperazin-1-yl]cyclohexyl}-5-{5-[(1S,2S)-2-fluorocyclopropyl]-1,2,4-oxadiazol-3-yl}-5-methylhexahydropenta[c]pyrrole-2(1H)-carboxamide], the “Agonist Activity (%)” value in assay [1] is given as 328%.

For `CC(C)N1CCN([C@H]2CCCC(F)(F)[C@@H]2NC(=O)N2C[C@@H]3CN(c4ccccc4)C[C@@H]3C2)CC1` [Example 11, (3aR,6aS)—N-{(1R,6S)-2,2-difluoro-6-[4-(propan-2-yl)piperazin-1-yl]cyclohexyl}-5-phenylhexahydropyrrolo[3,4-c]pyrrole-2(1H)-carboxamide], the “Agonist Activity (%)” value in assay [1] came to 477%. Regarding `CC(C)N1CCN([C@H]2CCCC(F)(F)[C@@H]2NC(=O)N2C[C@H]3C[C@@H](c4ccc(F)cc4)C[C@H]3C2)CC1` [Example 15, (3aR,5R,6aS)—N-{(1R,6S)-2,2-difluoro-6-[4-(propan-2-yl)piperazin-1-yl]cyclohexyl}-5-(4-fluorophenyl)hexahydropenta[c]pyrrole-2(1H)-carboxamide], the “Agonist Activity (%)” value in assay [1] came out at 511%. The same measure, in the same setting: to `CC(C)N1CCN([C@H]2CCCC(F)(F)[C@@H]2NC(=O)N2C[C@@H]3[C@H](C2)[C@@H]3c2noc(C3CC3)n2)CC1` [Example 4, (1R,5S,6S)-6-(5-cyclopropyl-1,2,4-oxadiazol-3-yl)-N-{(1R,6S)-2,2-difluoro-6-[4-(propan-2-yl)piperazin-1-yl]cyclohexyl}-3-azabicyclo[3.1.0]hexane-3-carboxamide] belongs 15%.
